Patent publication US20240279278A1, “NMU RECEPTOR 2 AGONISTS” (Boehringer Ingelheim International GmbH, priority 2023, published 2024)
≈ marks a conversion by molar mass, not a printed value. Residues, ends and D or L forms follow the SMILES beside them.

How the values were obtained:
human NMUR1 receptor = target: T1, human NMUR1 receptor (Homo sapiens, UniProt Q9HB89); experiment: Radioligand binding competition assay (RLB), human NMUR1 receptor binding (SPA, [125I]-Neuromedin U-25); settings: CHO-K1 hNMUR1 cell membranes, 4 hours at RT
T1 construct: host or cells: CHO-K1
T1 sequence (Q9HB89 24-426 limits assumed): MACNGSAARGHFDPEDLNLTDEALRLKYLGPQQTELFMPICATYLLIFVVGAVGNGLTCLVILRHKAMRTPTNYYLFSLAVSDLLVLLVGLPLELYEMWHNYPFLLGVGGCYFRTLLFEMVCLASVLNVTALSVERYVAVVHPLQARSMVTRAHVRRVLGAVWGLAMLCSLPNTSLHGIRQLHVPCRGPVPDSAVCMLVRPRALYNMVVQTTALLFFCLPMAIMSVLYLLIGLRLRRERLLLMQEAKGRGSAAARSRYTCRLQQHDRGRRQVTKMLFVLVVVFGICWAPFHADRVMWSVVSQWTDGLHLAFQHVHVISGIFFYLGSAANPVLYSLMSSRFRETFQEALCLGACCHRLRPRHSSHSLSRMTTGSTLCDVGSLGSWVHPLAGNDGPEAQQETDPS
Description: Example 2: Radioligand Binding Competition Assay (RLB) Human NMUR1 Receptor Binding 1) Membranes The test is based on membranes prepared from a human NMUR1/Apoaequorin Stable Cell Line (Creative Biogene, Cat. No. CSC-RG1308). Cell Line Description: CHO-NMUR1 cell line is clonally-derived from a CHO-K1 cell line, which has been transfected with a bicistronic expression plasmid containing the sequence coding for the human neuromedin U receptor 1 (NM_006056.4, 180 to 1391). Mosaic-ID: CL16550614 Membrane preparation: Cells were broken by nitrogen cavitation (900 psi, 1 hour). Intact cells were removed by centrifugation (400 rcf, 10 minutes, 4° C.) before the crude membrane fraction was collected by ultracentrifugation (20.000 rcf, 1 hour, 4° C.). 2) Human NMUR1 Receptor Binding Assay (Radioligand: [125l]-Neuromedin U-25) In this Scintillation Proximity Assay (SPA) design, the membranes immobilize directly to the PVT-WGA-PEI type A beads (polyethyleneimine treated polyvinyltoluene beads coupled to wheatgerm agglutinin, Perkin Elmer) via interactions of wheat germ agglutinate and glycosylated membrane structures. Thereby the radioactively la-belled ligand, bound to NMUR1 receptors on the membrane, comes in close proximity to the solid scintillator of the PVT bead. Radioactive human neuromedin U-25 then stimulates the scintillant to emit light. In contrast, radioligand not bound to the receptor is too distant from the bead to elicit a signal. For the Scintillation Proximity Assay the CHO-K1 hNMUR1 cell membranes and SPA-beads are diluted to concentrations, which assure a robust signal to background ratio. The SPA incubation buffer consists of 25 mM Hepes (pH=7.0), 5 mM MgCl2, 1 mM CaCl2, 10 ug/mL Saponine and 0.1% bovine serum albumin and is used for all dilutions. Final assay setup in 96-well plate: 20 μL of 10× test compound dilutions+40 μL of 5× [125l]-Neuromedin U-25 (1× approx. 30 pM; 2000 μCi/mmol (μCi=microcurie))+60 μL membrane dilution (approx. 1.0 μg membrane protein)+80 μL SPA bead dilution (250 μg). The assay is incubated for 4 hours at RT, including controls for specific binding where no displacer is added and non-specific binding by adding unlabeled hNMU-25 at 100 nM. Bound radioactivity is determined by scintillation counting (MicroBeta Trilux 1450, Perkin Elmer, detection of 125I decay). […] The system assumes one binding site with no relevant radioligand depletion (<10%) and that the binding is reversible and at equilibrium. [formula] [formula]

human NMUR2 receptor = human NMUR2 receptor (Homo sapiens, UniProt Q9GZQ4); experiment: IP1 Gq HTRF assay, activation of human NMUR2 in buffer; type: cell-based; set-up: expressed in transfected cells; host or cells: CHO-K1; settings: for EC50: CHO-K1 cells expressing human NMUR2, stimulation buffer with 0.1% BSA, read-out: EC50 (hNMUR2) buffer
Method in brief: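 CHO-K1 cells stably expressing human NMUR1 or NMUR2, seeded 24 h before assay, stimulated with peptide agonists (8-point dose-response, 1% DMSO final) in HEPES/HBSS buffer with 50 mM LiCl and 0.1% BSA, pH 7.4, 1 h at 37 °C. IP1 accumulation read by HTRF competition (665/620 nm); EC50 from 4-parameter sigmoidal fit.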

physchem = type: physicochemical
Method in brief: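 Peptide TFA salts were shaken at a nominal 10 mg/mL in 0.1 M phosphate buffer, pH 6 to 8, for 2 h at room temperature and then filtered. Reversed-phase HPLC peak area was compared with a 1 mg/mL control in buffer or DMSO to give solubility. The pH of each sample was recorded.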

human NMUR2 receptor, sequence (Q9GZQ4 whole entry): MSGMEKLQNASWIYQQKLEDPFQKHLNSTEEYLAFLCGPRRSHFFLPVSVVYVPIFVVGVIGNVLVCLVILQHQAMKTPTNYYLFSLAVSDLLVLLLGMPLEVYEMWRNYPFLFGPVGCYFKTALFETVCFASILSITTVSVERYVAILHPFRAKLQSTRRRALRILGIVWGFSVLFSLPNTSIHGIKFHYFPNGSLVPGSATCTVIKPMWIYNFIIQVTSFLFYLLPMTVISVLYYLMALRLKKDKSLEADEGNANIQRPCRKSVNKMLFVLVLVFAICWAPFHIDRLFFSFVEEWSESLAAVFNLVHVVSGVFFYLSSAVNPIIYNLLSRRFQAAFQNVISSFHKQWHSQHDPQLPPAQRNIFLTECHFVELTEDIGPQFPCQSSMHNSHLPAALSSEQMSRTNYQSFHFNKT

solubility at 2 h (physchem; pH 7.2) [µg/mL] | SMILES | Ki (human NMUR1 receptor) [nM] | EC50 (human NMUR2 receptor) [nM] | solubility at 2 h (physchem; pH 7.3) [µg/mL] | EC50 (hNMUR1)/EC50 (hNMUR2) (human NMUR2 receptor; selectivity for NMUR2 over NMUR1 from IP1 assay in buffer (Example 3)) | solubility at 2 h (physchem; pH 7.5) [µg/mL] | solubility at 2 h (physchem; pH 6.9) [µg/mL]
8400 (≈ 3130 µM) | CCCC[C@H](NC(=O)[C@H](CC(C)C)N(C)C(=O)[C@H](Cc1ccccc1)NC(=O)[C@H](Cc1ccc(O)cc1)NC(=O)CN1CCN(CCNC(=O)CN(C)C(=O)CN(C)C(=O)CN(C)C(=O)CN(C)C(=O)CN(C)C(=O)CN(C)C(=O)CN(C)C(=O)CN(C)C(=O)CN(C)C(=O)CN(C)C(=O)CN(C)C(=O)CN(C)C(=O)CC[C@H](NC(=O)CC[C@H](NC(=O)CC[C@H](NC(=O)CCCCCCCCCCCCCCCCC(=O)O)C(=O)O)C(=O)O)C(=O)O)CC1)C(=O)N[C@@H](CCCN)C(=O)N(C)[C@@H](C)C(=O)N[C@@H](CCCNC(=N)N)C(=O)NCC(N)=O [Compound 20, C18DA-gGlu3-Sar12-AEPipAc-Tyr-Phe-NMeLeu-Nle-Orn-NMeAla-Arg-Gly-NH2] | > 10000 | 2.2 | – | – | – | –
– | CCCC[C@H](NC(=O)[C@H](CC(C)C)N(C)C(=O)[C@H](Cc1ccccc1)NC(=O)[C@H](Cc1ccc(O)cc1)NC(=O)CN1CCN(CCNC(=O)CN(C)C(=O)CN(C)C(=O)CN(C)C(=O)CN(C)C(=O)CN(C)C(=O)CN(C)C(=O)CN(C)C(=O)CN(C)C(=O)CN(C)C(=O)CN(C)C(=O)CN(C)C(=O)CN(C)C(=O)CN(C)C(=O)CN(C)C(=O)CN(C)C(=O)CC[C@H](NC(=O)CC[C@H](NC(=O)CC[C@H](NC(=O)CCCCCCCCCCCCCCCCC(=O)O)C(=O)O)C(=O)O)C(=O)O)CC1)C(=O)N[C@@H](CCN)C(=O)N(C)[C@@H](C)C(=O)N[C@@H](CCCNC(=N)N)C(=O)NCC(N)=O [Compound 23, C18DA-gGlu3-Sar15-AEPipAc-Tyr-Phe-NMeLeu-Nle-Dbu-NMeAla-Arg-Gly-NH2] (HELM PEPTIDE1{[O=C(O)CCCCCCCCCCCCCCCCC(=O)[*:2]].[gGlu].[gGlu].[gGlu].[Sar].[Sar].[Sar].[Sar].[Sar].[Sar].[Sar].[Sar].[Sar].[Sar].[Sar].[Sar].[Sar].[Sar].[Sar].[O=C(CN1CCN(CCN[*:1])CC1)[*:2]].Y.F.[meL].[Nle].[Dab].[meA].R.G.[am]}$$$$V2.0) | > 10000 | 3.3 | 8900 (≈ 3080 µM) | – | – | –
– | CCCC[C@H](NC(=O)[C@H](CC(C)C)N(C)C(=O)[C@H](Cc1ccccc1)NC(=O)[C@H](Cc1ccc(O)cc1)NC(=O)CN1CCN(CCNC(=O)CN(C)C(=O)CN(C)C(=O)CN(C)C(=O)CN(C)C(=O)CN(C)C(=O)CN(C)C(=O)CN(C)C(=O)CN(C)C(=O)CN(C)C(=O)CN(C)C(=O)CN(C)C(=O)CN(C)C(=O)CN(C)C(=O)CN(C)C(=O)CN(C)C(=O)CC[C@H](NC(=O)CC[C@H](NC(=O)CC[C@H](NC(=O)CCCCCCCCCCCCCCCCCCC(=O)O)C(=O)O)C(=O)O)C(=O)O)CC1)C(=O)N[C@@H](CCCN)C(=O)N1CCC[C@H]1C(=O)N[C@@H](CCCNC(=N)N)C(=O)NCC(N)=O [Compound 1, C20DA-gGlu3-Sar15-AEPipAc-Tyr-Phe-NMeLeu-Nle-Orn-Pro-Arg-Gly-NH2] (HELM PEPTIDE1{[O=C(O)CCCCCCCCCCCCCCCCCCC(=O)[*:2]].[gGlu].[gGlu].[gGlu].[Sar].[Sar].[Sar].[Sar].[Sar].[Sar].[Sar].[Sar].[Sar].[Sar].[Sar].[Sar].[Sar].[Sar].[Sar].[O=C(CN1CCN(CCN[*:1])CC1)[*:2]].Y.F.[meL].[Nle].[Orn].P.R.G.[am]}$$$$V2.0) | > 10000 | 1.4 | – | 635 | 8200 (≈ 2790 µM) | –
– | CCCC[C@H](NC(=O)[C@H](CC(C)C)N(C)C(=O)[C@H](Cc1ccccc1)NC(=O)[C@H](Cc1ccc(O)cc1)NC(=O)CN1CCN(CCNC(=O)CN(C)C(=O)CN(C)C(=O)CN(C)C(=O)CN(C)C(=O)CN(C)C(=O)CN(C)C(=O)CN(C)C(=O)CN(C)C(=O)CN(C)C(=O)CN(C)C(=O)CN(C)C(=O)CN(C)C(=O)CC[C@H](NC(=O)CC[C@H](NC(=O)CC[C@H](NC(=O)CCCCCCCCCCCCCCCCCCC(=O)O)C(=O)O)C(=O)O)C(=O)O)CC1)C(=O)N[C@@H](CCN)C(=O)N1CCC[C@H]1C(=O)N[C@@H](CCCNC(=N)N)C(=O)NCC(N)=O [Compound 8, C20DA-gGlu3-Sar12-AEPipAc-Tyr-Phe-NMeLeu-Nle-Dbu-Pro-Arg-Gly-NH2] | > 10000 | 3.1 | 1900 (≈ 701 µM) | – | – | –
– | CCCC[C@H](NC(=O)[C@H](CC(C)C)N(C)C(=O)[C@H](Cc1ccccc1)NC(=O)[C@H](Cc1ccc(O)cc1)NC(=O)CN1CCN(CCNC(=O)CN(C)C(=O)CN(C)C(=O)CN(C)C(=O)CN(C)C(=O)CN(C)C(=O)CN(C)C(=O)CN(C)C(=O)CN(C)C(=O)CN(C)C(=O)CN(C)C(=O)CN(C)C(=O)CN(C)C(=O)CN(C)C(=O)CN(C)C(=O)CN(C)C(=O)CC[C@H](NC(=O)CC[C@H](NC(=O)CC[C@H](NC(=O)CCCCCCCCCCCCCCCCCCC(=O)O)C(=O)O)C(=O)O)C(=O)O)CC1)C(=O)N[C@@H](CCN)C(=O)N1CCC[C@H]1C(=O)N[C@@H](CCCNC(=N)N)C(=O)NCC(N)=O [Compound 42, C20DA-gGlu3-Sar15-AEPipAc-Tyr-Phe-NMeLeu-Nle-Dbu-Pro-Arg-Gly-NH2] (HELM PEPTIDE1{[O=C(O)CCCCCCCCCCCCCCCCCCC(=O)[*:2]].[gGlu].[gGlu].[gGlu].[Sar].[Sar].[Sar].[Sar].[Sar].[Sar].[Sar].[Sar].[Sar].[Sar].[Sar].[Sar].[Sar].[Sar].[Sar].[O=C(CN1CCN(CCN[*:1])CC1)[*:2]].Y.F.[meL].[Nle].[Dab].P.R.G.[am]}$$$$V2.0) | > 10000 | 3.2 | – | – | – | 5300 (≈ 1810 µM)
4600 (≈ 1660 µM) | CCCC[C@H](NC(=O)[C@H](CC(C)C)N(C)C(=O)[C@H](Cc1ccccc1)NC(=O)[C@H](Cc1ccc(O)cc1)NC(=O)CN1CCN(CCNC(=O)CN(C)C(=O)CN(C)C(=O)CN(C)C(=O)CN(C)C(=O)CN(C)C(=O)CN(C)C(=O)CN(C)C(=O)CN(C)C(=O)CN(C)C(=O)CN(C)C(=O)CN(C)C(=O)CN(C)C(=O)CC[C@H](NC(=O)CC[C@H](NC(=O)CC[C@H](NC(=O)CCCCCCCCCCCCCCCCCCC(=O)O)C(=O)O)C(=O)O)C(=O)O)CC1)C(=O)N[C@@H](CCCNC(=N)N)C(=O)N1CCC[C@H]1C(=O)N[C@@H](CCCNC(=N)N)C(=O)NCC(N)=O [Compound 6, C20DA-gGlu3-Sar12-AEPipAc-Tyr-Phe-NMeLeu-Nle-Arg-Pro-Arg-Gly-NH2] | > 10000 | 2 | – | – | – | –

SMILES | solubility at 2 h (physchem; pH 7.2) [µg/mL] | Ki (human NMUR1 receptor) [nM] | EC50 (human NMUR2 receptor) [nM] | solubility at 2 h (physchem; pH 7.3) [µg/mL] | EC50 (hNMUR1)/EC50 (hNMUR2) (human NMUR2 receptor; selectivity for NMUR2 over NMUR1 from IP1 assay in buffer (Example 3)) | solubility at 2 h (physchem; pH 7.5) [µg/mL] | solubility at 2 h (physchem; pH 6.9) [µg/mL]
CCCC[C@H](NC(=O)[C@H](CC(C)C)N(C)C(=O)[C@H](Cc1ccccc1)NC(=O)[C@H](Cc1ccc(O)cc1)NC(=O)CN1CCN(CCNC(=O)CN(C)C(=O)CN(C)C(=O)CN(C)C(=O)CN(C)C(=O)CN(C)C(=O)CN(C)C(=O)CN(C)C(=O)CN(C)C(=O)CN(C)C(=O)CC[C@H](NC(=O)CC[C@H](NC(=O)CC[C@H](NC(=O)CCCCCCCCCCCCCCCCC(=O)O)C(=O)O)C(=O)O)C(=O)O)CC1)C(=O)N[C@@H](CCN)C(=O)N(C)[C@@H](C)C(=O)N[C@@H](CCCNC(=N)N)C(=O)NCC(N)=O [Compound 28, C18DA-gGlu3-Sar9-AEPipAc-Tyr-Phe-NMeLeu-Nle-Dbu-NMeAla-Arg-Gly-NH2] (HELM PEPTIDE1{[O=C(O)CCCCCCCCCCCCCCCCC(=O)[*:2]].[gGlu].[gGlu].[gGlu].[Sar].[Sar].[Sar].[Sar].[Sar].[Sar].[Sar].[Sar].[Sar].[O=C(CN1CCN(CCN[*:1])CC1)[*:2]].Y.F.[meL].[Nle].[Dab].[meA].R.G.[am]}$$$$V2.0) | 8500 (≈ 3460 µM) | > 10000 | 1.4 | – | – | – | –
